Assay results published in paper PMC2827632 (Biochemistry, 2010).

Assays:
[1] = biological target: Mtb Lpd R347S (Mycobacterium tuberculosis, UniProt P9WHH9, R347S)
[2] = biological target: Mtb Lpd A181V (Mycobacterium tuberculosis, UniProt P9WHH9, A181V); conditions: 100 µM

## COc1ccc(C(=O)N2CCC3(CC2)C(=O)N(CC(=O)NCCc2ccc(Cl)cc2Cl)CN3c2ccccc2)c(OC)c1 [compound 5, N-(2,4-dichlorophenethyl)-2-(8-(2,4-dimethoxybenzoyl)-4-oxo-1-phenyl-1,3,8-triazaspiro[4.5]decan-3-yl)acetamide]
[1]
  Decrease in potency, R347S vs wild-type: more than 100 fold
[2]
  Inhibition of A181V Mtb Lpd: 10%
